Source: patent publication US6664246B2, “Pharmaceutical composition” (MRC Holdings PTY Limited, priority 1999, dated 2003)

Tests used:
[1] = Dissolution of 1,25(OH)2D3 in iodised poppy seed oil; assay type: physicochemical; settings: in one ml of iodised poppy seed oil
Method: For example, 2 mg of 1,25(OH)2 D3 can be readily dissolved in one ml of iodised poppy seed oil.

[2] = Radiolabelled vitamin D3 levels in liver, tumor and plasma after hepatic artery injection in Novikoff tumor bearing rats; assay type: in vivo, Sprague-Dawley rats; settings: 1 hour post injection
Method: Male 300-350 gr. Sprague-Dawely rats were given a general anaesthetic (halothane) and a lapratomy performed. Then 5×10^6 Novikoff cells suspended in 100 μl of medium was instilled beneath the liver capsule using a 26G3/8-tuberculin needle. The abdominal incision was then closed with gut suture.
Animals were then left for 10 days with food and water available ad libitum and monitored daily to assess health and well being. After this period, animals were randomly allocated to one of the treatment groups (n=6 per group) and lapratomy was performed again. A catheter was inserted into the hepatic artery of the animal, through which radiolabelled vitamin D3 or vehicle injections were carried out. The different experimental groups treated were as follows:
After administration of the drug, the catheter was removed and the incision sutured. Animals were euthanased at 1 hour, 1, and 3 days post drug (or vehicle) administration. Just before euthanasing, 3 ml of blood was drawn through cardiac puncture from each animal.
Post mortem, the liver and the tumor of each animal was excised, weighed and frozen in the freezer until analysis. After tissue homogenization, liver, tumor or plasma was extracted with dichloromethane. The amount of hot vitamin D3 present in each sample was determined using a β-counter.

[3] = system: HepG2 cells; assay: Trypan blue exclusion cell count assay; assay type: cell-based, human
Method: Following exposure of cells to vitamin D3 dissolved in normal or lipiodol (1% v/v) containing media. [^3H]thymidine incorporation assay and the trypan blue exclusion cell count methods were used to determine cell proliferation. To do this, cells were plated in 24 well tissue culture plates at 10^4 cells per well and incubated for 24 h in an incubator at 37° C. with humidified 5% CO2 atmosphere. The, medium was replaced with one containing vitamin D3(10^−11 to 10^−7 M) dissolved in either the normal medium or first dissolved in lipiodol and then mixed thoroughly with the medium to make a final lipiodol concentration of 1% (v/v). For acute dose studies, cells were exposed to one of the two drug containing media for 24 h, which were then replaced with drug free medium for the next four days. Whilst, in chronic treatment, cells were exposed for 5 days to different concentrations of the drug dissolved in one of the media described above. The media were changed on alternate days. […] The amount of radioactivity incorporated into trichloroacetic acid precipitatable material was determined using a β-scintillation counter. […]
For the cell count assay, cells were plated in six well plates at a concentration of 5×10^4 cells per well. […] At the end of the treatment period (5 days), cells were trypsinised and counted with a hemocytometer. […]

[4] = system: Novikoff; assay: Screening of rat cell lines for responsiveness to vitamin D3; assay type: cell-based; settings: 10^-11-10^-6 M
Excerpt: (§1) 2. In order to find an appropriate cell line, which would grow in the rat tumor and also be responsive to vitamin D3, rat cell lines, Novikoff and HTC were screened for responsiveness to vitamin D3(10^−11-10^−6 M).

[5] = system: HTC; assay: as above; assay type: cell-based; settings: 10^-6 M, read-out: inhibition of proliferation
Excerpt: as §1

[6] = system: HepG2 cells; assay: [3H]thymidine incorporation cell proliferation assay; assay type: cell-based, human
Method: Following exposure of cells to vitamin D3 dissolved in normal or lipiodol (1% v/v) containing media. [^3H]thymidine incorporation assay and the trypan blue exclusion cell count methods were used to determine cell proliferation. To do this, cells were plated in 24 well tissue culture plates at 10^4 cells per well and incubated for 24 h in an incubator at 37° C. with humidified 5% CO2 atmosphere. The, medium was replaced with one containing vitamin D3(10^−11 to 10^−7 M) dissolved in either the normal medium or first dissolved in lipiodol and then mixed thoroughly with the medium to make a final lipiodol concentration of 1% (v/v). For acute dose studies, cells were exposed to one of the two drug containing media for 24 h, which were then replaced with drug free medium for the next four days. Whilst, in chronic treatment, cells were exposed for 5 days to different concentrations of the drug dissolved in one of the media described above. The media were changed on alternate days. At the end of treatment period, cell cultures were assayed for thymidine incorporation by the addition of 0.1μ Ci of [^3H]thymidine to each well for the last 4 h of culture. The amount of radioactivity incorporated into trichloroacetic acid precipitatable material was determined using a β-scintillation counter. Results are plotted as percentage inhibition relative to control. […]

Structure (SMILES)	amount readily dissolved [1] [mg]	level of radioactivity in liver, tumor and plasma [2]	cell number, acute treatment ([3]; 10^-7 M, 1 day exposure, then 4 days drug free)	cell number, chronic treatment ([3]; 5 days exposure)	responsiveness of cell line to vitamin D3 [4]	inhibition at 1 µM [5] [%]	thymidine incorporation compared to control, acute treatment ([6]; 1 day exposure to drug, then 4 days medium without drug)	thymidine incorporation versus control, chronic treatment ([6]; 5 days exposure, all concentrations (10^-11 to 10^-7 M))
C=C1/C(=C\C=C2/CCC[C@]3(C)[C@@H]([C@H](C)CCCC(C)(C)O)CC[C@@H]23)C[C@@H](O)C[C@@H]1O [1,25(OH)2 D3, 1,25-dihydroxycholecalciferol]	2							
C=C1CC[C@H](O)C/C1=C/C=C1\CCC[C@]2(C)[C@@H]([C@H](C)CCCC(C)C)CC[C@@H]12 [vitamin D3, cholecalciferol]		high in all three samples	significant reduction in cell number	dose dependant decrease in call number	non responsive	~50	did not show a reduction in thymidine incorporation	significant reduction in thymidine incorporation
